Assay results reported in ChEMBL document CHEMBL4321821, “Opioids as Substrates and Inhibitors of the Genetically Highly Variable Organic Cation Transporter OCT1” (J Med Chem, 2019).
pIC50: −log10 of the molar value. Calls of active or inactive are those of the source. The calls are words filed in the database; no cut-off is given here.

Assays:
OCT1 (SLC22A1) [1] = biological target: T1, OCT1 (SLC22A1) (Homo sapiens, UniProt O15245); assay: Substrate activity at human OCT1 expressed in HEK293 cells assessed as increase in compound uptake by measuring Km incubated for 2 mins by LC-MS/MS analysis based Michaelis-Menten plot analysis relative to control empty vector transfected cells; assay type: cell-based; settings: HEK293 cells that express human OCT1
T1 sequence (O15245 whole entry): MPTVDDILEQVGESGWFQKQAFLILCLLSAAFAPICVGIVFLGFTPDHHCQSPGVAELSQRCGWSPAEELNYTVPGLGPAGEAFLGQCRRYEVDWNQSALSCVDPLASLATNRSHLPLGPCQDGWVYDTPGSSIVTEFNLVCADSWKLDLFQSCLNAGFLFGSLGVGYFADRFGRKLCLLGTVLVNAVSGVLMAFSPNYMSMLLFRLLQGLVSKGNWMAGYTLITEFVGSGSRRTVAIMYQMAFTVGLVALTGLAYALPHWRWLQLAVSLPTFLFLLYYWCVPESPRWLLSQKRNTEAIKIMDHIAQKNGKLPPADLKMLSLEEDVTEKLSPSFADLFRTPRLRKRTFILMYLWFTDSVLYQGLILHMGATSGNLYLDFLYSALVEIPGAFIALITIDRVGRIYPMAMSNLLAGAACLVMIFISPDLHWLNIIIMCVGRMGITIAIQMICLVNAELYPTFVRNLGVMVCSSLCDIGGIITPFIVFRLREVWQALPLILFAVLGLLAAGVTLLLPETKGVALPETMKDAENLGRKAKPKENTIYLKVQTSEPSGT

[2] = Cmax in human at 450 mg, po; assay type: ADME; design: dose 450 mg, route oral; settings: in vivo
HEK293 [3] = assay: Substrate activity at human OCT1*3 allele mutant expressed in HEK293 cells assessed as increase in compound uptake at 0.1 uM incubated for 2 mins by LC-MS/MS analysis relative to control empty vector transfected cells; assay type: cell-based
[4] = biological target: T2, Solute carrier family 22 member 1 (Homo sapiens, UniProt O15245); assay: Inhibition of human OCT1 expressed in HEK293 cells assessed as reduction in ASP+ substrate uptake by microplate reader based analysis; assay type: cell-based
T2 sequence (O15245 whole entry): T1 sequence (O15245 whole entry)

HEK293 [5] = assay: Substrate activity at human OCT1*5 allele mutant expressed in HEK293 cells assessed as increase in compound uptake at 0.1 uM incubated for 2 mins by LC-MS/MS analysis relative to control empty vector transfected cells; assay type: cell-based
[6] = Unbound Cmax in human at 450 mg, po; assay type: ADME; settings: in vivo
HEK293 [7] = assay: Substrate activity at human OCT1*4 allele mutant expressed in HEK293 cells assessed as increase in compound uptake at 0.1 uM incubated for 2 mins by LC-MS/MS analysis relative to control empty vector transfected cells; assay type: cell-based
HEK293 [8] = assay: Substrate activity at human OCT1*8 allele mutant expressed in HEK293 cells assessed as increase in compound uptake at 0.1 uM incubated for 2 mins by LC-MS/MS analysis relative to control empty vector transfected cells; assay type: cell-based
[9] = Intrinsic clearance in human liver microsomes; assay type: ADME, Microsome; settings: read-out: CLH
[10] = Unbound maximal portal vein concentration of in human at 450 mg, po; assay type: ADME, tissue-based; settings: in vivo
[11] = biological target: T2, Solute carrier family 22 member 1; assay: Substrate activity at human OCT1 expressed in HEK293 cells assessed as increase in compound uptake by measuring Vmax incubated for 2 mins by LC-MS/MS analysis based Michaelis-Menten plot analysis relative to control empty vector transfected cells; assay type: cell-based; settings: hek293, 2 min
HEK293 [12] = assay: Substrate activity at human OCT1*6 allele mutant expressed in HEK293 cells assessed as increase in compound uptake at 0.1 uM incubated for 2 mins by LC-MS/MS analysis relative to control empty vector transfected cells; assay type: cell-based
HEK293 [13] = assay: Substrate activity at human OCT1*2 allele mutant expressed in HEK293 cells assessed as increase in compound uptake at 0.1 uM incubated for 2 mins by LC-MS/MS analysis relative to control empty vector transfected cells; assay type: cell-based
HEK293 [14] = assay: Substrate activity at human OCT1*7 allele mutant expressed in HEK293 cells assessed as increase in compound uptake at 0.1 uM incubated for 2 mins by LC-MS/MS analysis relative to control empty vector transfected cells; assay type: cell-based
[15] = Unbound Cmax in human at 4 mg, po; assay type: ADME; settings: in vivo
[16] = Unbound maximal portal vein concentration of in human at 4 mg, po; assay type: ADME, tissue-based; settings: in vivo
[17] = biological target: T2, Solute carrier family 22 member 1; assay: Substrate activity at OCT1 in primary human hepatocytes assessed as increase in compound uptake at 0.1 uM incubated for 2 mins by LC-MS/MS analysis relative to control; assay type: cell-based
[18] = Cmax in human at 4 mg, po; assay type: ADME; design: dose 4 mg, route oral; settings: in vivo
[19] = Cmax in human at 10 mg, po dosed as immediate release formulation; settings: in vivo
[20] = Cmax in human at 50 mg, po dosed as slow release formulation; settings: in vivo
[21] = Cmax in human at 10 mg, im; settings: in vivo
[22] = Cmax in human at 10 mg, iv; settings: in vivo
[23] = Unbound maximal portal vein concentration of in human at 10 mg, po dosed as controlled release formulation; assay type: ADME, organism-based; settings: in vivo
[24] = Unbound Cmax in human at 5 mg, po dosed as immediate release formulation; assay type: ADME, organism-based; settings: in vivo
OCT1 (SLC22A1) [25] = biological target: T1, OCT1 (SLC22A1); assay: Substrate activity at human OCT1 expressed in HEK293 cells assessed as increase in compound uptake at 0.1 uM incubated for 2 mins by LC-MS/MS analysis relative to control empty vector transfected cells; assay type: cell-based; settings: HEK293 cells that express human OCT1, read-out: FC
OCT1 (SLC22A1) [26] = biological target: T1, OCT1 (SLC22A1); assay: Substrate activity at human OCT1 expressed in HEK293 cells assessed as increase in compound uptake at 0.05 uM incubated for 2 mins by LC-MS/MS analysis relative to control empty vector transfected cells; assay type: cell-based; settings: HEK293 cells that express human OCT1, read-out: FC
OCT1 (SLC22A1) [27] = biological target: T1, OCT1 (SLC22A1); assay: Substrate activity at human OCT1 expressed in HEK293 cells assessed as increase in compound uptake at 0.5 uM incubated for 2 mins by LC-MS/MS analysis relative to control empty vector transfected cells; assay type: cell-based; settings: HEK293 cells that express human OCT1, read-out: FC
[28] = Ratio of unbound maximal portal vein concentration in human at 10 mg, po dosed as controlled release formulation to inhibition of human OCT1 expressed in HEK293 cells assessed as reduction in ASP+ substrate uptake by microplate reader based analysis; assay type: ADME, organism-based; settings: in vivo
in vitro = settings: PAMPA
Description: Passive membrane permeability by LC-MS/MS analysis based PAMPA

[29] = Cmax in human at 5 mg, po dosed as immediate release formulation; assay type: ADME, organism-based; design: dose 5 mg, route oral; settings: in vivo
[30] = Ratio of unbound Cmax in human at 5 mg, po dosed as immediate release formulation to inhibition of human OCT1 expressed in HEK293 cells assessed as reduction in ASP+ substrate uptake by microplate reader based analysis; assay type: ADME, organism-based; settings: in vivo
[31] = Unbound maximal portal vein concentration of in human at 5 mg, po dosed as immediate release formulation; assay type: ADME, organism-based; settings: in vivo
[32] = Ratio of unbound maximal portal vein concentration in human at 5 mg, po dosed as immediate release formulation to inhibition of human OCT1 expressed in HEK293 cells assessed as reduction in ASP+ substrate uptake by microplate reader based analysis; assay type: ADME, organism-based; settings: in vivo
[33] = Cmax in human at 10 mg, po dosed as controlled release formulation; assay type: ADME, organism-based; design: dose 10 mg, route oral; settings: in vivo
[34] = Ratio of unbound Cmax in human at 10 mg, po dosed as controlled release formulation to inhibition of human OCT1 expressed in HEK293 cells assessed as reduction in ASP+ substrate uptake by microplate reader based analysis; assay type: ADME, organism-based; settings: in vivo
[35] = Unbound Cmax in human at 10 mg, po dosed as controlled release formulation; assay type: ADME, organism-based; settings: in vivo
[36] = Unbound Cmax in human at 50 mg, po; assay type: ADME; settings: in vivo
[37] = Unbound Cmax in human at 50 mg, iv; assay type: ADME; settings: in vivo
[38] = Unbound maximal portal vein concentration of in human at 50 mg, iv; assay type: ADME, tissue-based; settings: in vivo
[39] = Ratio of unbound Cmax in human at 50 mg, po to inhibition of human OCT1 expressed in HEK293 cells assessed as reduction in ASP+ substrate uptake by microplate reader based analysis; assay type: ADME, organism-based; settings: in vivo
[40] = Cmax in human at 50 mg, po; assay type: ADME; design: dose 50 mg, route oral; settings: in vivo
[41] = Ratio of unbound Cmax in human at 50 mg, iv to inhibition of human OCT1 expressed in HEK293 cells assessed as reduction in ASP+ substrate uptake by microplate reader based analysis; assay type: ADME, organism-based; settings: in vivo
[42] = Cmax in human at 50 mg, iv; assay type: ADME; design: dose 50 mg, route intravenous; settings: in vivo
[43] = Unbound maximal portal vein concentration of in human at 50 mg, po; assay type: ADME, tissue-based; settings: in vivo
[44] = Ratio of unbound maximal portal vein concentration in human at 50 mg, iv to inhibition of human OCT1 expressed in HEK293 cells assessed as reduction in ASP+ substrate uptake by microplate reader based analysis; assay type: ADME, organism-based; settings: in vivo
[45] = Ratio of unbound maximal portal vein concentration in human at 50 mg, po to inhibition of human OCT1 expressed in HEK293 cells assessed as reduction in ASP+ substrate uptake by microplate reader based analysis; assay type: ADME, organism-based; settings: in vivo

C[N+]1(CC2CC2)CC[C@]23c4c5ccc(O)c4O[C@H]2C(=O)CC[C@@]3(O)[C@H]1C5 (stereo not given in full) [METHYLNALTREXONE]
Km at 2 min (OCT1 (SLC22A1) [1]): 20 to 20.3 µM
Cmax [2]: 140 nM
Activity (HEK293 [3]): inactive
pIC50 [4]: 3.63
Activity (HEK293 [5]): inactive
fCmax [6]: 0.12 µM
Activity (HEK293 [7]): inactive
Activity (HEK293 [8]): Active
microsomal CLint [9]: 32 µL/min/mg
fCmax [10]: 64.93 µM
Vmax [11]: 371.9 pmol/min/mg
Activity (HEK293 [12]): inactive
Activity (HEK293 [13]): inactive
Activity (HEK293 [14]): Active

CN1CC[C@]23c4c5ccc(O)c4O[C@H]2C(=O)CC[C@H]3[C@H]1C5 [HYDROMORPHONE]
Activity (HEK293 [3]): inactive
pIC50 [4]: 3.86
fCmax [15]: 0.03 µM
fCmax [16]: 0.72 µM
Activity (HEK293 [7]): inactive
Activity (HEK293 [8]): Active
Activity (HEK293 [12]): inactive
Activity (HEK293 [13]): inactive
fold change (FC) [17]: 1.7
Activity (HEK293 [14]): Active
Cmax [18]: 40 nM

CN1CC[C@]23c4c5ccc(O)c4O[C@H]2[C@@H](O)C=C[C@H]3[C@H]1C5 [MORPHINE]
pIC50 [4]: 4.14
Cmax [19]: 40 nM
Cmax [20]: 30 nM
Cmax [21]: 250 nM
Cmax [22]: 1050 nM

COc1ccc2c3c1O[C@H]1C(=O)CC[C@@]4(O)[C@@H](C2)N(C)CC[C@]314 [OXYCODONE]
fCmax [23]: 1.06 µM
fCmax [24]: 0.03 µM
uptake ratio at 2 min, 0.1 µM (OCT1 (SLC22A1) [25]): 0.8
uptake ratio at 2 min, 0.05 µM (OCT1 (SLC22A1) [26]): 0.9
uptake ratio at 2 min, 0.5 µM (OCT1 (SLC22A1) [27]): 0.9
Ratio [28]: 0.001
pIC50 [4]: 2.70
Papp (in vitro): 17.9 ×10⁻⁶ cm/s
Cmax [29]: 50 nM
Ratio [30]: 0.00001
fCmax [31]: 0.54 µM
Ratio [32]: 0.0003
Cmax [33]: 50 nM
Ratio [34]: 0.00001
fCmax [35]: 0.03 µM

CCOC(=O)[C@@]1(c2ccccc2)CCC=C[C@@H]1N(C)C
fCmax [36]: 0.08 µM
uptake ratio at 2 min, 0.1 µM (OCT1 (SLC22A1) [25]): 1.3
uptake ratio at 2 min, 0.05 µM (OCT1 (SLC22A1) [26]): 1.3
uptake ratio at 2 min, 0.5 µM (OCT1 (SLC22A1) [27]): 1.3
fCmax [37]: 2.49 µM
pIC50 [4]: 4.41
fCmax [38]: 10.58 µM
Papp (in vitro): 31.6 ×10⁻⁶ cm/s
Ratio [39]: 0.002
Cmax [40]: 110 nM
Ratio [41]: 0.064
Cmax [42]: 3310 nM
fCmax [43]: 8.18 µM
Ratio [44]: 0.273
Ratio [45]: 0.211
